Reference: patent US20240067662A1, “KRAS INHIBITORS” (Bristol-Myers Squibb Company, priority 2022, published 2024)
pIC50: −log10 of the molar value.

Molecular target: GMPPNP-loaded KRAS G12C (Homo sapiens, UniProt P01116, G12C)
Assay: KRAS G12C RAF Disruption Assay (HTRF)
Format: biochemical
Conditions: recombinant GMPPNP-loaded KRAS G12C (5 nM), 20 min with compound; GST-RAF1 RBD (9 nM); HTRF signal; read-out: KRASG12C RAF Disruption Assay (IC50)
How it was run: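 The read-out is an HTRF 520/495 emission ratio, with IC50 taken from dose-response curves. Compound was first incubated for 20 min at room temperature with active-state KRAS G12C (GMPPNP, 5 nM) in Tris pH 7.5/NaCl/MgCl2/DTT/BSA. RAF1 RBD-GST (9 nM, 20 min) and SA-Tb (0.25 nM, 3 h) were added in turn.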

GMPPNP-loaded KRAS G12C, sequence (P01116 1-188 isoform P01116-2 G12C): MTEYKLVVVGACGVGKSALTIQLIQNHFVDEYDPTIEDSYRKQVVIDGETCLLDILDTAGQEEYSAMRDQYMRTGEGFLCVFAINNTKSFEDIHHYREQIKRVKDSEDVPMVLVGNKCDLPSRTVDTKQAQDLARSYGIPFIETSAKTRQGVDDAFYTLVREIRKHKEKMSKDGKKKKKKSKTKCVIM

Compound	pIC50
C#Cc1c(F)ccc2cc(O)cc(-c3ncc4c(N5C[C@H]6CC[C@@H](C5)N6C(=O)/C(F)=C/c5cncc(C)n5)nc(OC[C@@]56CCCN5C[C@H](F)C6)nc4c3F)c12 [Example 26, (Z)-1-((1R, 5S)-3-(7-(8-ethynyl-7-fluoro-3-hydroxynaphthalen-1-yl)-8-fluoro-2-(((2R, 7aS)-2-fluorotetrahydro-1H-pyrrolizin-7a(5H)-yl)methoxy)pyrido[4,3-d]pyrimidin-4-yl)-3,8-diazabicyclo[3.2.1]octan-8-yl)-2-fluoro-3-(6-methylpyrazin-2-yl)prop-2-en-1-one]	6.77
N#CC[C@H]1CN(c2nc(OC[C@@]34CCCN3C[C@H](F)C4)nc3c(F)c(-c4cccc(O)c4)ncc23)CCN1C(=O)/C(F)=C/c1nccs1 [Example 72, 2-((S)-4-(8-fluoro-2-(((2R, 7aS)-2-fluorotetrahydro-1H-pyrrolizin-7a(5H)-yl)methoxy)-7-(3-hydroxyphenyl)pyrido[4,3-d]pyrimidin-4-yl)-1-((Z)-2-fluoro-3-(thiazol-2-yl)acryloyl)piperazin-2-yl)acetonitrile]	6.36
Cc1ccc2[nH]ncc2c1-c1ncc2c(N3CCN(C(=O)/C(F)=C/c4ccccn4)CC3)nc(OC[C@@]34CCCN3C[C@H](F)C4)nc2c1F [Example 30, (Z)-2-fluoro-1-(4-(8-fluoro-2-(((2R, 7aS)-2-fluorotetrahydro-1H-pyrrolizin-7a(5H)-yl)methoxy)-7-(5-methyl-1H-indazol-4-yl)pyrido[4,3-d]pyrimidin-4-yl)piperazin-1-yl)-3-(pyridin-2-yl)prop-2-en-1-one]	6.33
N#Cc1cccc2cccc(-c3ncc4c(N5CCN(C(=O)/C(F)=C/c6nccs6)CC5)nc(OC[C@@]56CCCN5C[C@H](F)C6)nc4c3F)c12 [Example 50, 8-(8-fluoro-4-(4-((Z)-2-fluoro-3-(thiazol-2-yl)acryloyl)piperazin-1-yl)-2-(((2R, 7aS)-2-fluorotetrahydro-1H-pyrrolizin-7a(5H)-yl)methoxy)pyrido[4,3-d]pyrimidin-7yl)-1-naphthonitrile]	6.08
C#Cc1cccc2cccc(-c3ncc4c(N5CCCN(C(=O)/C(F)=C/c6nccs6)CC5)nc(OC[C@@]56CCCN5C[C@H](F)C6)nc4c3F)c12 [Compound 78, (Z)-1-(4-(7-(8-ethynylnaphthalen-1-yl)-8-fluoro-2-(((2R, 7aS)-2-fluorotetrahydro-1H-pyrrolizin-7a(5H)-yl)methoxy)pyrido[4,3-d]pyrimidin-4-yl)-1,4-diazepan-1-yl)-2-fluoro-3-(thiazol-2-yl)prop-2-en-1-one]	6.92
C#Cc1cccc2cccc(-c3ncc4c(N5CCC6(CCN6C(=O)/C(F)=C/c6ccccn6)C5)nc(OC[C@@]56CCCN5C[C@H](F)C6)nc4c3F)c12 (single isomer, unassigned) [Compound 102]	7.06
C#Cc1c(F)ccc2cc(O)cc(-c3ncc4c(N5CC6CCC(C5)N6C(=O)/C(F)=C/c5nc(Br)cs5)nc(OC[C@@]56CCCN5C[C@H](F)C6)nc4c3F)c12 [Compound 11, (Z)-3-(4-bromothiazol-2-yl)-1-((JR, 5S)-3-(7-(8-ethynyl-7-fluoro-3-hydroxynaphthalen-1-yl)-8-fluoro-2-(((2R, 7aS)-2-fluorotetrahydro-1H-pyrrolizin-7a(5H)-yl)methoxy)pyrido[4,3-d]pyrimidin-4-yl)-3,8-diazabicyclo[3.2.1]octan-8-yl)-2-fluoroprop-2-en-1-one]	6.35
C#Cc1c(F)ccc2cc(O)cc(-c3ncc4c(N5C[C@H]6CC[C@@H](C5)N6C(=O)/C(F)=C/c5ccccn5)nc(OC[C@@]56CCCN5C[C@H](F)C6)nc4c3F)c12 [Compound 2, (Z)-1-((1R, 5S)-3-(7-(8-ethynyl-7-fluoro-3-hydroxynaphthalen-1-yl)-8-fluoro-2-(((2R, 7aS)-2-fluorotetrahydro-1H-pyrrolizin-7a(5H)-yl)methoxy)pyrido[4,3-d]pyrimidin-4-yl)-3,8-diazabicyclo[3.2.1]octan-8-yl)-2-fluoro-3-(pyridin-2-yl)prop-2-en-1-one]	7.49
C#Cc1cccc2cccc(-c3ncc4c(N5CCN(C(=O)/C(F)=C/c6ncco6)CC5)nc(OC[C@@]56CCCN5C[C@H](F)C6)nc4c3F)c12 [Compound 124, (Z)-1-(4-(7-(8-ethynylnaphthalen-1-yl)-8-fluoro-2-(((2R, 7aS)-2-fluorotetrahydro-1H-pyrrolizin-7a(5H)-yl)methoxy)pyrido[4,3-d]pyrimidin-4-yl)piperazin-1-yl)-2-fluoro-3-(oxazol-2-yl)prop-2-en-1-one]	6.27
CN1CCC[C@H]1COc1nc(N2CCN(C(=O)/C(F)=C/c3nccs3)[C@@H](CC#N)C2)c2cnc(-c3cc(O)ccc3F)c(F)c2n1 [Example 23, 2-((S)-1-((Z)-2-fluoro-3-(thiazol-2-yl)acryloyl)-4-(8-fluoro-7-(2-fluoro-5-hydroxyphenyl)-2-(((S)-1-methylpyrrolidin-2-yl)methoxy)pyrido[4,3-d]pyrimidin-4-yl)piperazin-2-yl)acetonitrile]	6.74
C#Cc1cccc2cccc(-c3ncc4c(N(C)[C@@H]5CCN(C(=O)/C(F)=C/c6nccs6)C5)nc(OC[C@@]56CCCN5C[C@H](F)C6)nc4c3F)c12 [Compound 116, (Z)-1-((R)-3-((7-(8-ethynylnaphthalen-1-yl)-8-fluoro-2-(((2R, 7aS)-2-fluorotetrahydro-1H-pyrrolizin-7a(5H)-yl)methoxy)pyrido[4,3-d]pyrimidin-4-yl)(methyl)amino)pyrrolidin-1-yl)-2-fluoro-3-(thiazol-2-yl)prop-2-en-1-one]	7.57
C#Cc1c(F)ccc2cc(O)cc(-c3ncc4c(N5CCN(C(=O)/C(F)=C/c6ncccn6)C[C@@H]5C)nc(OC[C@@]56CCCN5C[C@H](F)C6)nc4c3F)c12 [Example 66, (Z)-1-((S)-4-(7-(8-ethynyl-7-fluoro-3-hydroxynaphthalen-1-yl)-8-fluoro-2-(((2R, 7aS)-2-fluorotetrahydro-1H-pyrrolizin-7a(5H)-yl)methoxy)pyrido[4,3-d]pyrimidin-4-yl)-3-methylpiperazin-1-yl)-2-fluoro-3-(pyrimidin-2-yl)prop-2-en-1-one]	> 8.70
C#Cc1cccc2cccc(-c3ncc4c(N(C)[C@@H]5CCN(C(=O)/C(F)=C/c6ccccn6)C5)nc(OC[C@@]56CCCN5C[C@H](F)C6)nc4c3F)c12 [Compound 115, (Z)-1-((R)-3-((7-(8-ethynylnaphthalen-1-yl)-8-fluoro-2-(((2R, 7aS)-2-fluorotetrahydro-1H-pyrrolizin-7a(5H)-yl)methoxy)pyrido[4,3-d]pyrimidin-4-yl)(methyl)amino)pyrrolidin-1-yl)-2-fluoro-3-(pyridin-2-yl)prop-2-en-1-one]	7.85
C#Cc1cccc2cccc(-c3ncc4c(N(C)C5CCN(C(=O)/C(F)=C/c6nccs6)C5C)nc(OC[C@@]56CCCN5C[C@H](F)C6)nc4c3F)c12 (single isomer, unassigned) [Example 73 cis isomer 2]	5.74
C#Cc1c(F)ccc2cccc(-c3ncc4c(N(C)[C@@H]5CCN(C(=O)/C(F)=C/c6ccccn6)C5)nc(OC[C@@]56CCCN5C[C@H](F)C6)nc4c3F)c12 [Compound 117, (Z)-1-((R)-3-((7-(8-ethynyl-7-fluoronaphthalen-1-yl)-8-fluoro-2-(((2R, 7aS)-2-fluorotetrahydro-IH-pyrrolizin-7a(5H)-yl)methoxy)pyrido[4,3-d]pyrimidin-4-yl)(methyl)amino)pyrrolidin-1-yl)-2-fluoro-3-(pyridin-2-yl)prop-2-en-1-one]	8.05
C#Cc1c(F)ccc2cc(O)cc(-c3ncc4c(N5C[C@H]6CC[C@@H](C5)N6C(=O)/C(F)=C/c5cnccn5)nc(OC[C@@]56CCCN5C[C@H](F)C6)nc4c3F)c12 [Compound 16, (Z)-1-((1R, 5S)-3-(7-(8-ethynyl-7-fluoro-3-hydroxynaphthalen-1-yl)-8-fluoro-2-(((2R, 7aS)-2-fluorotetrahydro-1H-pyrrolizin-7a(5H)-yl)methoxy)pyrido[4,3-d]pyrimidin-4-yl)-3,8-diazabicyclo[3.2.1]octan-8-yl)-2-fluoro-3-(pyrazin-2-yl)prop-2-en-1-one]	6.74
C#Cc1ccc(F)c2cccc(-c3ncc4c(N5CCN(C(=O)/C(F)=C/c6ccccn6)CC5)nc(OC[C@@]56CCCN5C[C@H](F)C6)nc4c3F)c12 [Compound 96, (Z)-1-(4-(7-(8-ethynyl-5-fluoronaphthalen-1-yl)-8-fluoro-2-(((2R, 7aS)-2-fluorotetrahydro-1H-pyrrolizin-7a(5H)-yl)methoxy)pyrido[4,3-d]pyrimidin-4-yl)piperazin-1-yl)-2-fluoro-3-(pyridin-2-yl)prop-2-en-1-one]	6.96
C#Cc1cccc2cccc(-c3ncc4c(N5C[C@H]6CN(C(=O)/C(F)=C/c7ccccn7)C[C@H]6C5)nc(OC[C@@]56CCCN5C[C@H](F)C6)nc4c3F)c12 [Compound 100, (Z)-1-((3aR, 6aS)-5-(7-(8-ethynylnaphthalen-1-yl)-8-fluoro-2-(((2R, 7aS)-2-fluorotetrahydro-1H-pyrrolizin-7a(5H)-yl)methoxy)pyrido[4,3-d]pyrimidin-4-yl)hexahydropyrrolo[3,4-c]pyrrol-2(1H)-yl)-2-fluoro-3-(pyridin-2-yl)prop-2-en-1-one]	5.28
C#Cc1cccc2cccc(-c3ncc4c(N(C)[C@H]5CN(C(=O)/C(F)=C/c6cnccn6)C[C@H]5F)nc(OC[C@@]56CCCN5C[C@H](F)C6)nc4c3F)c12 [Compound 130, (Z)-1-((3S,4R)-3-((7-(8-ethynylnaphthalen-1-yl)-8-fluoro-2-(((2R, 7aS)-2-fluorotetrahydro-1H-pyrrolizin-7a(5H)-yl)methoxy)pyrido[4,3-d]pyrimidin-4-yl)(methyl)amino)-4-fluoropyrrolidin-1-yl)-2-fluoro-3-(pyrazin-2-yl)prop-2-en-1-one]	7.22
